From patent US9050353B2, “Use of icariin and epimedium flavonoids containing icariin to treat diseases associated with myelin sheath lesion” (Xuanwu Hospital of Capital Medical University, priority 2010, dated 2015)

Legend:
[1] = tested on: CNPase; test: Spinal cord CNPase by Western blot, EAE mice; format: in vivo
Method: (§1) Preparation of mice model and administration: experimental autoimmune encephalomyelitis (EAE) mice model is an important tool for studying various human demyelinating diseases of nervous system. In the present experiment, the preparation of EAE mice model was performed by immunizing female C57BL/6J mice with myelin sheath oligodendroglial cell surface glycoprotein MOG35-55. That is, the mice were subcutaneously injected at dorsal part of spinal column with 0.2 mL of MOG35-55 antigen elixir, and 0.2 ml of bordetella pertussis solution was intraperitoneally injected at the time of immunization injection and 48 h thereafter, respectively. Icariin was intragastrically administered after the last injection of bordetella pertussis solution, for consecutive 3 weeks.
(§2) Experimental objective: myelin sheath is formed with prominences of oligodendroglial cells. CNPase, myelin basic protein (MBP) are marker proteins of mature oligodendroglial cells. The present experiment was to observe the expression of CNPase and MBP to represent the content of oligodendroglial cells in spinal cord of EAE model mice by Western blot method; and to study the effects of icariin on it.
(§3) Experimental method: the mice were anesthetized and sacrificed, fresh spinal cord was taken on ice, total protein was extracted by cleavage on ice, to prepare Western blot sample, added separately with CNPase, MBP primary antibodies and incubated, added with corresponding secondary antibodies, ECL colorated, Kodak film exposed. Pictures were analyzed with Image J software and standardized with β-actin.

[2] = tested on: peripheral blood CD4+ and CD8+ T cells; test: Peripheral blood T cell subgroup by flow cytometer, EAE mice; format: in vivo
Method: as §1
Experimental objective: one common feature of autoimmune diseases is the […]. In this experiment, the numbers of CD4+ and CD8+ cells in peripheral blood T cell subgroup of EAE mice mode were measured by flow cytometer (FACS), and the ratio of them was obtained; and the effects of icariin on these changes were observed.
Experimental method: mice were anesthetized with pentobarbital sodium, blood sample was taken from abdominal aorta, stood at room temperature for 2 h, centrifuged at 3000 rpm for 20 min, and cells were taken, added with anti-CD4+, CD8+ T cell antibodies with different markers, then the percentages of CD4+, CD8+ cells in T lymphocytes were measured by flow cytometer, and the CD4+/CD8+ T cells ratio was calculated.

[3] = tested on: myelin basic protein (MBP); test: Spinal cord MBP by Western blot, EAE mice; format: in vivo
Method: as §1, §2, §3

[4] = tested on: experimental autoimmune encephalomyelitis (EAE) mice model; test: Nervous function damage score in EAE mice model; format: in vivo, C57BL/6J mice; settings: peak of attack, scale 0-5
Method: as §1
Nervous function test method: the ethological changes of mice were observed by two experimenters every day using blind method. Scoring standard: 0 score, absence of symptom; 1 score, decrease of tail tension, evident slight gait awkward; 2 score, disappearance of tail tension, moderate gait abnormal, deficient in maintaining gesture; 3 score, limb strength weak; 4 score, limb paralysis; 5 score, near death or died.

[5] = tested on: IL-6; test: Serum IL-6 content by ELISA, EAE mice; format: in vivo
Method: as §1
(§4) Experimental objective: interleukin-1 (IL-1) and IL-6 are important inflammatory cytokines, and have promoting effects on inflammatory reactions. This experiment used enzyme linked immunosorbent assay (ELISA) to measure contents of IL-1 and IL-6 in serums of EAE mice model, and the effects of icariin on these contents were observed.
(§5) Experimental method: mice were anesthetized with pentobarbital sodium, blood sample was taken from abdominal aorta, stood at room temperature for 2 h, centrifuged at 3000 rpm for 20 min, and supernatant was taken, stored at −80° C. for use. The operation was performed strictly according to the steps of specification of ELISA kit. Optical density was measured with ELIASA at 450 nm. The corresponding contents of IL-1 and IL-6 were calculated with the measured OD values on standard curves.

[6] = tested on: IL-1; test: Serum IL-1 content by ELISA, EAE mice; format: in vivo
Method: as §1, §4, §5

[7] = tested on: myeloid tissue myelinoclasis in EAE mice model; test: Myelinoclasis of myeloid tissue, LFB staining, EAE mice; format: in vivo; settings: scale 0-4
Method: as §1
Experimental objective: the myelinoclasis of myeloid tissue of EAE model mice were assayed by Luxol Fast Blue (LFB) staining, and the intervention effects of icariin on this pathological change were studied.
Experimental method: the mice were anesthetized with 10% chloral hydrate on the 29th day of experiment, fixed by perfusion of 4% paraformaldehyde, myeloid tissues were taken for making paraffin sections, section thickness […]. Stained with LFB, observed under microscope, and scored according to the following standard: 0 score, absence of myelinoclasis; 1 score, one small range of myelinoclasis; 2 score, 2 or 3 small ranges of myelinoclasis; 3 score, 1 to 2 large ranges of myelinoclasis; 4 score, large ranges of myelinoclasis accumulatively existing in 20% or more of white matter regions.

[8] = tested on: inflammatory cell infiltration in spinal cord tissues of EAE mice model; test: Inflammatory cell infiltration in spinal cord, HE staining, EAE mice; format: in vivo; settings: scale 0-4
Method: as §1
Experimental objective: the pathological changes of spinal cord in EAE model, especially inflammatory cell infiltration situations was assayed by hematoxylin-eosin (HE) staining test, and the intervention effects of […] on these pathological changes were observed.
Experimental method: the mice were anesthetized with 10% chloral hydrate on the 28th day of experiment, fixed by perfusion of 4% paraformaldehyde, spinal cord tissues were taken for making paraffin sections, section thickness […]. Stained with HE, observed under microscope, and scored according to the following standard: 0 score, absence of cell infiltration; 1 score, spinal meninge cell infiltration; 2 score, 1 to 4 small ranges of cell infiltration around vessels; 3 score, 5 or more small ranges of cell infiltration around vessels, or one or more accumulatively substantial large range of cell infiltration; 4 score, a large number of cell infiltration ranges accumulatively existing in 20% or more of white matter regions.

## COc1ccc(-c2oc3c(CC=C(C)C)c(OC4OC(CO)C(O)C(O)C4O)cc(O)c3c(=O)c2OC2OC(C)C(O)C(O)C2O)cc1 (stereo not drawn) [icariin, 3-((6-deoxymannopyranosyl)oxy)-7-(glucopyranosyloxy)-5-hydroxy-2-(4-methoxyphenyl)-8-(3-methyl-2-butenyl)-4H-1-benzopyran-4-ketone]
[1]; 3 mg/kg
  CNPase/actin Integration grey level: 1.16 ± 0.04
[1]; 10 mg/kg
  CNPase/actin Integration grey level: 1.28 ± 0.07
[1]; 30 mg/kg
  CNPase/actin Integration grey level: 1.33 ± 0.05
[2]; 3 mg/kg
  CD4 + T cells: 52.78 ± 3.30%
  CD4 +/CD8 + ratio: 1.25 ± 0.20
  CD8 + T cells: 42.61 ± 3.10%
[2]; 10 mg/kg
  CD4 + T cells: 58.89 ± 1.27 %
  CD4 +/CD8 + ratio: 1.62 ± 0.06
  CD8 + T cells: 36.43 ± 0.38 %
[2]; 30 mg/kg
  CD4 + T cells: 55.81 ± 1.41%
  CD4 +/CD8 + ratio: 1.39 ± 0.12
  CD8 + T cells: 40.20 ± 1.79%
[3]; 3 mg/kg
  MBP/actin Integration grey level: 0.98 ± 0.13
[3]; 10 mg/kg
  MBP/actin Integration grey level: 1.07 ± 0.08
[3]; 30 mg/kg
  MBP/actin Integration grey level: 1.11 ± 0.06
[4]; 3 mg/kg intragastric
  Nervous function damage score: 0.57 ± 0.49
[4]; 10 mg/kg intragastric
  Nervous function damage score: 0.32 ± 0.52
[4]; 30 mg/kg intragastric
  Nervous function damage score: 0.13 ± 0.34
[5]; 3 mg/kg
  IL-6 content: 0.147 ± 0.011 pg/mL
[5]; 10 mg/kg
  IL-6 content: 0.142 ± 0.013 pg/mL
[5]; 30 mg/kg
  IL-6 content: 0.126 ± 0.011 pg/mL
[6]; 3 mg/kg
  IL-1 content: 0.119 ± 0.003 pg/mL
[6]; 10 mg/kg
  IL-1 content: 0.114 ± 0.001 pg/mL
[6]; 30 mg/kg
  IL-1 content: 0.113 ± 0.002 pg/mL
[7]; 3 mg/kg
  Myelinoclasis (LFB staining score): 0.91 ± 0.21
[7]; 10 mg/kg
  Myelinoclasis (LFB staining score): 0.78 ± 0.16
[7]; 30 mg/kg
  Myelinoclasis (LFB staining score): 0.66 ± 0.20
[8]; 3 mg/kg
  Inflammatory cell infiltration (HE staining score): 2.08 ± 0.09
[8]; 10 mg/kg
  Inflammatory cell infiltration (HE staining score): 1.58 ± 0.16
[8]; 30 mg/kg
  Inflammatory cell infiltration (HE staining score): 1.18 ± 0.21
